The record followed here is patent US20040022850A1, “Modified release formulation” (priority 2000, published 2004).

Converted amounts (≈) assume the structure as drawn.

Broadly, the solubility is how much of the substance goes into solution per volume. A higher solubility goes with a readily soluble substance.

This series can be described thus: Solubility of the model drugs. The format is physicochemical.

`CCCCOC(=O)c1ccc(O)cc1` [butyl paraben]: the solubility is 200 µg/mL (≈ 1030 µM).
To `CC(C)n1c(/C=C/C(O)CC(O)CC(=O)O)c(-c2ccc(F)cc2)c2ccccc21` (centres unmarked) [fluvastatin] belongs over 50000 µg/mL.
